Measured values: PubChem BioAssay (NCI)
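Growth conditions: 96-well plates. Treatment: test compound, 48 hours, 5 concentrations. Analysis: linear interpolation between bracketing concentrations; unreached endpoints set to highest concentration. GI50 marks 50% less growth. TGI is the concentration that stops growth completely.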

Experiments:
Test in all cases: DTP human tumour cell line panel, 48 h
ACHN renal = tested on: ACHN renal
SNB-75 CNS = tested on: SNB-75 CNS
SK-MEL-28 melanoma = tested on: SK-MEL-28 melanoma
TK-10 renal = tested on: TK-10 renal
HOP-62 NSCLC = tested on: HOP-62 NSCLC
RPMI-8226 leukemia = tested on: RPMI-8226 leukemia
SF-268 CNS = tested on: SF-268 CNS
COLO 205 colon = tested on: COLO 205 colon
SR leukemia = tested on: SR leukemia
M14 melanoma = tested on: M14 melanoma

Structure (SMILES)	TGI (ACHN renal)	TGI (SNB-75 CNS)	TGI (SK-MEL-28 melanoma)	TGI (TK-10 renal)	TGI (HOP-62 NSCLC)	TGI (RPMI-8226 leukemia)	TGI (SF-268 CNS)	TGI (COLO 205 colon)	TGI (SR leukemia)	TGI (M14 melanoma)	GI50 (ACHN renal)	GI50 (SNB-75 CNS)	GI50 (SK-MEL-28 melanoma)	GI50 (TK-10 renal)	GI50 (HOP-62 NSCLC)	GI50 (RPMI-8226 leukemia)	GI50 (SF-268 CNS)	GI50 (COLO 205 colon)	GI50 (SR leukemia)	GI50 (M14 melanoma)
O=C(CN1CCCC1=O)CS(=O)(=O)c1ccccc1	> 100 µM	> 100 µM	> 100 µM	> 100 µM	> 100 µM	> 100 µM	> 100 µM	> 100 µM	> 100 µM	> 100 µM	–	–	–	–	–	–	–	–	–	–
Fc1ccc(-c2sc(-c3ccsc3)cc2Cc2ccsc2)cc1	–	> 10 µM	> 10 µM	> 10 µM	> 10 µM	> 10 µM	> 10 µM	> 10 µM	> 10 µM	> 10 µM	–	–	–	–	–	–	–	–	–	–
COc1cc(C2S/C(=C/c3ccccc3)C(=O)N2Cc2ccccc2)cc(OC)c1OC (stereo not drawn)	> 100 µM	73.3 µM	> 100 µM	> 100 µM	> 100 µM	> 100 µM	> 100 µM	> 100 µM	57.2 µM	> 100 µM	–	–	–	–	–	–	–	–	–	–
O=P(O)(O)c1ccc(-c2ccc(I)cc2)cc1	> 100 µM	> 100 µM	> 100 µM	> 100 µM	> 100 µM	> 100 µM	> 100 µM	> 100 µM	> 100 µM	> 100 µM	–	–	–	–	–	–	–	–	–	–
O=c1c2c3c(sc2nc2n1N=CN(c1ccccc1)C2)CCCC3	> 100 µM	> 100 µM	> 100 µM	> 100 µM	> 100 µM	> 100 µM	> 100 µM	> 100 µM	> 100 µM	> 100 µM	–	–	–	–	–	–	–	–	–	–
CNC(=O)N(CCC#N)CCN(C(=O)NC)c1ccccc1	> 100 µM	> 100 µM	> 100 µM	> 100 µM	> 100 µM	> 100 µM	> 100 µM	> 100 µM	> 100 µM	> 100 µM	–	–	–	–	–	–	–	–	–	–
COc1ccccc1NC(=S)N=Nc1c(O)[nH]c2ccccc12	> 100 µM	> 100 µM	23.6 µM	> 100 µM	> 100 µM	> 100 µM	13.5 µM	> 100 µM	> 100 µM	> 100 µM	–	–	–	–	–	–	–	–	–	–
CCOC(=O)/C=C(/C(=O)OCC)n1cc(C)c(=O)n(Cc2cnnn2COCCOC(C)=O)c1=O	16.5 µM	> 67.2 µM	47.5 µM	12.3 µM	> 100 µM	23.8 µM	42.5 µM	11.8 µM	39.6 µM	31.8 µM	–	–	–	–	–	–	–	–	–	–
Cc1ncc([N+](=O)[O-])n1CC[N+](C)([O-])CCCCn1ccnc1[N+](=O)[O-] (stereo not drawn)	> 100 µM	> 100 µM	> 100 µM	> 100 µM	> 100 µM	> 100 µM	> 100 µM	> 100 µM	> 100 µM	> 100 µM	–	–	–	–	–	–	–	–	–	–
Cc1nn(C(=O)c2ccccc2O)c2c1C(c1ccc(O)cc1O)SC(N)=N2 (stereo not drawn)	> 10 µM	> 10 µM	> 10 µM	> 10 µM	> 10 µM	> 10 µM	> 10 µM	> 10 µM	> 10 µM	> 10 µM	–	–	–	–	–	–	–	–	–	–
N[C@H]1c2c(Br)sc(Br)c2C(=O)[C@H]1O	> 64.6 µM	79.7 µM	26.7 µM	> 100 µM	36.5 µM	57.4 µM	> 68.1 µM	22.2 µM	5.79 µM	48.4 µM	–	–	–	–	–	–	–	–	–	–
Cc1cc(=O)oc2cc(OCCCOc3ccc4c(C)cc(=O)oc4c3)ccc12	> 100 µM	> 100 µM	> 100 µM	> 100 µM	> 100 µM	> 100 µM	> 100 µM	> 100 µM	> 100 µM	> 100 µM	–	–	–	–	–	–	–	–	–	–
COc1ccc2c(c1)N(Cc1ccc(Cl)cc1)CCC2N1CCCC1=O (stereo not drawn)	88.2 µM	35.8 µM	45.6 µM	60.9 µM	42.7 µM	12.8 µM	> 100 µM	20 µM	> 100 µM	17.6 µM	4.85 µM	3.22 µM	8.28 µM	6.98 µM	4.27 µM	1.46 µM	5.41 µM	5.33 µM	6.37 µM	4.42 µM
COC(=O)Nc1nc2ccc(S(=O)(=O)Nc3ccccn3)cc2[nH]1	> 100 µM	71.1 µM	56.2 µM	70.3 µM	> 100 µM	40.6 µM	> 100 µM	> 100 µM	64.1 µM	> 100 µM	–	–	–	–	–	–	–	–	–	–
O=C1/C(=C/c2ccc(O)cc2)CCCC1CN1CCCCC1 (stereo not drawn)	3.11 µM	22.5 µM	10.6 µM	8.64 µM	29.8 µM	> 100 µM	11.9 µM	4.02 µM	4.35 µM	8.07 µM	–	–	–	–	–	–	–	–	–	–
C[C@@]1(CCCCCCCCCCc2ccccc2)C[C@@]2(C)OC(=O)C[C@H]2OO1	4.88 µM	6.79 µM	4.2 µM	7.28 µM	35.3 µM	5.36 µM	7.95 µM	3.37 µM	2.97 µM	2.98 µM	–	–	–	–	–	–	–	–	–	–
CCOC(=O)/C=C/C(=O)O/C=C/[N+](=O)[O-]	> 100 µM	> 100 µM	–	> 100 µM	> 100 µM	> 100 µM	> 100 µM	> 100 µM	> 100 µM	> 100 µM	–	–	–	–	–	–	–	–	–	–
